Active and inactive are the calls of the source. No cut-off for these calls is given here.
What was measured:
A549 [1] = assay: Cytotoxicity against human A549 cells after 48 hrs by MTT assay; assay type: cell-based; details: A549, 48 h
Lipid bilayer [2] = assay: Binding affinity to PE:PG:TDM membrane assessed as dehydration of membrane after 4 hrs
Escherichia coli [3] = assay: Antibacterial activity against Escherichia coli MTCC 443 assessed as leakage of large amount of cytoplasmic contents by atomic force microscopic analysis; assay type: functional, organism-based
Escherichia coli [4] = assay: Antibacterial activity against Escherichia coli MTCC 443 after 12 hrs by microplate reader assay in presence of EDTA; assay type: functional, organism-based
Staphylococcus aureus [5] = assay: Antibacterial activity against Staphylococcus aureus MTCC 737 after 12 hrs by microplate reader assay in presence of EDTA; assay type: functional, organism-based
[6] = Binding affinity to PE:PG membrane assessed as dehydration of membrane after 4 hrs
[7] = Therapeutic index, ratio of MHC50 for sheep RBC to MIC99 for Mycobacterium tuberculosis H37Rv; details: sheep red blood cells, read-out: TI
Staphylococcus aureus [8] = assay: Antibacterial activity against Staphylococcus aureus MTCC 737 assessed as effect on membrane permeabilization by using propidium iodide dye; assay type: functional, organism-based
Staphylococcus aureus [9] = assay: Antibacterial activity against Staphylococcus aureus MTCC 737 after 12 hrs by microplate reader assay; assay type: functional; details: MTCC 737, 12 h
A549 [10] = assay: Cytotoxicity against human A549 cells assessed as effect on cell cycle phase at 100 uM by propidium iodide staining-based flow cytometry; details: a549, 100 µM
[11] = Binding affinity to PE:PG membrane assessed as membrane fluidity after 4 hrs
Escherichia coli [12] = assay: Antibacterial activity against Escherichia coli MTCC 443 assessed as micelle-like structures by atomic force microscopic analysis; assay type: functional, organism-based
Escherichia coli [13] = assay: Antibacterial activity against Escherichia coli MTCC 443 assessed as membrane surface indentations by atomic force microscopic analysis; assay type: functional, organism-based
THP-1 = assay: Cytotoxicity against human THP1 cells after 48 hrs by MTT assay; assay type: cell-based; details: THP-1, 48 h
[14] = test system: Mycobacterium tuberculosis; assay: Antimycobacterial activity against Mycobacterium tuberculosis H37Rv after 14 days by inverted microscopic analysis; assay type: functional; details: 336 h
Lipid bilayer [15] = assay: Binding affinity to PE:PG:LPS membrane assessed as dehydration of membrane after 4 hrs
Escherichia coli [16] = assay: Antibacterial activity against Escherichia coli MTCC 443 measured after 1 to 24 hrs by microplate reader assay; assay type: functional, organism-based
[17] = test system: Mycolicibacterium smegmatis; assay: Antimycobacterial activity against Mycobacterium smegmatis str. MC2 155 after 6 to 96 hrs by inverted microscopic analysis relative to control; assay type: functional
Staphylococcus aureus [18] = assay: Antibacterial activity against Staphylococcus aureus MTCC 737 measured after 1 to 24 hrs by microplate reader assay; assay type: functional, organism-based
[19] = test system: Mycolicibacterium smegmatis; assay: Antimycobacterial activity against Mycobacterium smegmatis str. MC2 155 after 2 days by inverted microscopic analysis; assay type: functional; details: str. MC2 155, 48 h
Lipid bilayer [20] = assay: Binding affinity to PE:PG:TDM membrane assessed as membrane fluidity after 4 hrs
Escherichia coli [21] = assay: Antibacterial activity against Escherichia coli MTCC 443 assessed as effect on membrane permeabilization by using propidium iodide dye; assay type: functional, organism-based
Escherichia coli [22] = assay: Antibacterial activity against Escherichia coli MTCC 443 after 12 hrs by microplate reader assay; assay type: functional; details: MTCC 443, 12 h
[23] = Therapeutic index, ratio of MHC50 for chicken RBC to MIC99 for Mycobacterium tuberculosis H37Rv; details: chicken red blood cells, read-out: TI
Lipid bilayer [24] = assay: Binding affinity to PE:PG:LPS membrane assessed as membrane fluidity after 4 hrs
Staphylococcus aureus [25] = assay: Antibacterial activity against Staphylococcus aureus MTCC 737 at 16 to 256 uM measured after 1 to 24 hrs by microplate reader assay; assay type: functional, organism-based
[26] = test system: Mycolicibacterium smegmatis; assay: Antimycobacterial activity against Mycobacterium smegmatis str. MC2 155 assessed as effect on […] by using propidium iodide dye; assay type: functional, organism-based
[27] = test system: Mycobacterium tuberculosis; assay: Antimycobacterial activity against Mycobacterium tuberculosis H37Rv after 14 days by inverted microscopic analysis in presence of plasma; assay type: functional; details: 336 h
Escherichia coli [28] = assay: Antibacterial activity against Escherichia coli MTCC 443 at 8 to 128 uM measured after 1 to 24 hrs by microplate reader assay; assay type: functional, organism-based
Escherichia coli [29] = assay: Antibacterial activity against Escherichia coli MTCC 443 assessed as effect membrane topology by atomic force microscopic analysis; assay type: functional, organism-based
Escherichia coli [30] = assay: Antibacterial activity against Escherichia coli MTCC 443 assessed as effect membrane morphology by atomic force microscopic analysis; assay type: functional, organism-based
[31] = test system: Mycolicibacterium smegmatis; assay: Antimycobacterial activity against Mycobacterium smegmatis str. MC2 155 after 2 days by inverted microscopic analysis in presence of plasma; assay type: functional; details: str. MC2 155, 48 h

Structure (SMILES) | IC50 (A549 [1]) | Activity (Lipid bilayer [2]) | Activity (Escherichia coli [4]) | Activity (Staphylococcus aureus [5]) | selectivity ratio [7] | MIC99 (Staphylococcus aureus [9]) | Activity (A549 [10]) | Activity [11] | IC50 (THP-1) | MIC99 [14] | MIC99 [19] | Activity (Lipid bilayer [20]) | MIC99 (Escherichia coli [22]) | selectivity ratio [23] | Activity (Lipid bilayer [24]) | also measured
COC(=O)CC[C@@H](C)[C@H]1CC[C@H]2[C@@H]3[C@H](OC(=O)CN)C[C@@H]4C[C@H](OC(=O)CN)CC[C@]4(C)[C@H]3C[C@H](OC(=O)CN)[C@]12C.Cl.Cl.Cl | 75.9 µM | Active | Active | Active | < 20 | 64 µM | Non-toxic | inactive | 38.2 µM | > 50 µM | > 50 µM | inactive | 32 µM | < 20 | inactive | Activity (Escherichia coli [3]): Active; Activity [6]: Active; Activity (Staphylococcus aureus [8]): Active; Activity (Escherichia coli [12]): Active; Activity (Escherichia coli [13]): Active; Activity (Lipid bilayer [15]): Active; Activity (Escherichia coli [16]): Dose-dependent effect; Activity [17]: inactive; Activity (Staphylococcus aureus [18]): Dose-dependent effect; Activity (Escherichia coli [21]): Active
COC(=O)CC[C@@H](C)[C@H]1CC[C@H]2[C@@H]3[C@H](OC(=O)C[n+]4ccc(N(C)C)cc4)C[C@@H]4C[C@H](OC(=O)C[n+]5ccc(N(C)C)cc5)CC[C@]4(C)[C@H]3C[C@H](OC(=O)C[n+]3ccc(N(C)C)cc3)[C@]12C.[Cl-].[Cl-].[Cl-] | > 200 µM | inactive | Active | Active | > 160 | 256 µM | Non-toxic | inactive | > 200 µM | 6.25 µM | 1.56 µM | Active | > 512 µM | > 160 | inactive | Activity (Staphylococcus aureus [25]): inactive; Activity [26]: Active; MIC99 [27]: 6.25 µM; Activity (Escherichia coli [28]): inactive; fold change (FC) [17]: 10000; Activity (Escherichia coli [29]): inactive; Activity (Escherichia coli [30]): inactive; MIC99 [31]: 6.25 µM

From ChEMBL document CHEMBL3621073, “Bile acid amphiphiles with tunable head groups as highly selective antitubercular agents” (Medchemcomm, 2014)
